Test results as given in ChEMBL document CHEMBL6074626, “Recent advances in triazole synthesis via click chemistry and their pharmacological applications: A review” (Bioorg Med Chem Lett, 2024).
Values belong to the compound of their own block, whether it stands above or below them.

Key:
[1] = Cytotoxicity against CHO-K1 cells assessed as reduction in cell growth incubated for 72 hrs by MTT assay; conditions: Chinese hamster (Cricetulus griseus)
[2] = target: Cystic fibrosis transmembrane conductance regulator (Homo sapiens, UniProt P13569, F508DEL); experiment: Activation of CFTR F508del mutant (unknown origin)
Cystic fibrosis transmembrane conductance regulator, sequence (P13569 as listed by the source): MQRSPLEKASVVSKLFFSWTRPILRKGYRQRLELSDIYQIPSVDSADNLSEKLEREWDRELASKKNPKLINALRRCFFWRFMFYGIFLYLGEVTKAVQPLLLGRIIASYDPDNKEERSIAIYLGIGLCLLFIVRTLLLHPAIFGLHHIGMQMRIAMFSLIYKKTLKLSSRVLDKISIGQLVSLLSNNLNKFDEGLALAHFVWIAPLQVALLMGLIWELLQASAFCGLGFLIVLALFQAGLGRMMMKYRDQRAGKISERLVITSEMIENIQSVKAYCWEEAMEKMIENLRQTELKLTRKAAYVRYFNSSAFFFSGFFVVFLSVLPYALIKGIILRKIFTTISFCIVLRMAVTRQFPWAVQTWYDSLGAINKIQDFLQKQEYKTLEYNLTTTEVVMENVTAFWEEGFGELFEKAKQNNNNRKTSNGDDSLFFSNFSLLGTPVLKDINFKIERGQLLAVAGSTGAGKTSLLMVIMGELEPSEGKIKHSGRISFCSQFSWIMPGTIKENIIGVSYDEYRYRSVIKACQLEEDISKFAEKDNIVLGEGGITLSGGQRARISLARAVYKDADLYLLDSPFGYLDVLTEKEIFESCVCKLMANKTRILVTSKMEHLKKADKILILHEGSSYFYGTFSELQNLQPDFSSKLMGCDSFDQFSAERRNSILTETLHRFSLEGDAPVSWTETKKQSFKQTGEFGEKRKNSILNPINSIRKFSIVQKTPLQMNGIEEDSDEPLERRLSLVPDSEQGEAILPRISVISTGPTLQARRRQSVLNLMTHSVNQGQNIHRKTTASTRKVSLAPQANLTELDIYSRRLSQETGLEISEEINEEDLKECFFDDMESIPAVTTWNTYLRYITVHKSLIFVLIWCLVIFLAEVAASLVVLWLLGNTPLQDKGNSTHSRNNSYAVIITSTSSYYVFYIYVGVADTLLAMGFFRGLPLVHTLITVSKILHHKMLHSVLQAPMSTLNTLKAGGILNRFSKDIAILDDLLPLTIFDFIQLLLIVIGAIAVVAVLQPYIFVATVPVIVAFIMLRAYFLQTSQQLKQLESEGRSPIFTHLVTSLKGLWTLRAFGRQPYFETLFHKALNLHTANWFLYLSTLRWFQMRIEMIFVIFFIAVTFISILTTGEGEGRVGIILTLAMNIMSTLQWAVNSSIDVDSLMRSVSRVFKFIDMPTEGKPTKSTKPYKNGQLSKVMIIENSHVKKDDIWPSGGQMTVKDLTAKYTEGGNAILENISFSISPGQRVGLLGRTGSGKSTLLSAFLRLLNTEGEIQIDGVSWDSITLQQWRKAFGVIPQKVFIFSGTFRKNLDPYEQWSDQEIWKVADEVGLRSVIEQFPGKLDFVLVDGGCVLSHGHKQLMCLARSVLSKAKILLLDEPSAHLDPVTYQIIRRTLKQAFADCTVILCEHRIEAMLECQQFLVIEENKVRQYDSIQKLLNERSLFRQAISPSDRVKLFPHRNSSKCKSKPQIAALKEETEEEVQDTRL

[3] = target: T1, UDP-N-acetylglucosamine--peptide N-acetylglucosaminyltransferase 110 kDa subunit (Homo sapiens, UniProt O15294)
T1 sequence (O15294 whole entry): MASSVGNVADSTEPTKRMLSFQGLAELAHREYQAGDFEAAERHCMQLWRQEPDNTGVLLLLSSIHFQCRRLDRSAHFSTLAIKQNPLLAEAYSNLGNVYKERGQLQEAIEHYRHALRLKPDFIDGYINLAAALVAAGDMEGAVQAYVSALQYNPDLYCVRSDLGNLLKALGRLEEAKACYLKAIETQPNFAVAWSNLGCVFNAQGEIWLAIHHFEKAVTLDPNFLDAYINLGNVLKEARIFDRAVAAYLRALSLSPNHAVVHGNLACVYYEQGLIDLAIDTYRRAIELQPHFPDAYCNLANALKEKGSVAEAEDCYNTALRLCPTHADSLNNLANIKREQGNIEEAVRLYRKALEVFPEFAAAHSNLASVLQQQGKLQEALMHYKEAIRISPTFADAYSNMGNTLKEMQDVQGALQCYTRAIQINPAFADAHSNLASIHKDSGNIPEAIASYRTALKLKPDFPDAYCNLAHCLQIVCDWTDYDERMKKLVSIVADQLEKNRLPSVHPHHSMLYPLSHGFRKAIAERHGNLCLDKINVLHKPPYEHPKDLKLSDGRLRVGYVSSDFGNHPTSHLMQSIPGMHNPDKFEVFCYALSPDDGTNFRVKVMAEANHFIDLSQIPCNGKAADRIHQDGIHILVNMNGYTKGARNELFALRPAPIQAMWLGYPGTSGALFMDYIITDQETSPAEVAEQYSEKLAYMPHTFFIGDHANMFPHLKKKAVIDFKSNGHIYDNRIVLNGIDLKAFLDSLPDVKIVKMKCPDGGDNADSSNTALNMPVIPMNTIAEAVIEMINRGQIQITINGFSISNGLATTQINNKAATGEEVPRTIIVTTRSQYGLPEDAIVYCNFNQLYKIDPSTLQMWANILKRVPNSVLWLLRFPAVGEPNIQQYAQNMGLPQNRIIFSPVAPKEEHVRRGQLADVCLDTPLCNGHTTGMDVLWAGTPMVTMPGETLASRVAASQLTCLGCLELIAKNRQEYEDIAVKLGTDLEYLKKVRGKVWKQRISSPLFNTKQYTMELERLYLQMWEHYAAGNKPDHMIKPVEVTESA
Description: Binding affinity to human recombinant OGT (312 to 1031 residue) assessed as inhibition constant by fluorescence based analysis

K562 = experiment: Antiproliferative activity against human K562 cells assessed as reduction in cell viability incubated for 72 hrs by MTT assay; conditions: K562, 72 h
HCT-116 = experiment: Antiproliferative activity against human HCT-116 cells assessed as reduction in cell viability incubated for 72 hrs by MTT assay; conditions: HCT-116, 72 h

SMILES: O=C(Cn1cc(CSc2nc3cc(OC(F)F)ccc3[nH]2)nn1)NC1CCCCC1
- IC50 at 72 h [1]: 53.3 µM

- IC50 [2]: 0.66 µM
SMILES: Cc1ccc(-n2cc(C3(c4ccc5c(c4)OC(F)(F)O5)CC3)nn2)cc1-c1cccc(C(=O)O)c1

- Ki [3]: 232 µM
SMILES: CC(=O)N[C@H]1C(n2cc(COP(=O)(O)OC[C@H]3O[C@@H](n4ccc(=O)[nH]c4=O)[C@H](O)[C@@H]3O)nn2)O[C@H](CO)[C@@H](O)[C@@H]1O (stereo not given in full)

- IC50 (K562): 8.5 µM
- IC50 (HCT-116): 23.1 µM
SMILES: COC(=O)CC[C@@H](C)[C@H]1CC[C@H]2[C@@H]3[C@@H](O)C[C@@H]4C[C@H](n5cc(CCCCC#Cc6nc7c(N)ncnc7n6[C@@H]6O[C@H](CO)[C@@H](C)[C@H]6C)nn5)CC[C@]4(C)[C@H]3CC[C@]12C
